# Measured values reported in ChEMBL document CHEMBL5696441 (Nat Chem Biol, 2011).
# Legend:
# [1] = system: Mast/stem cell growth factor receptor Kit (Homo sapiens), P10721 [V559D]; test: Inhibition of KIT V559D mutant (unknown origin) assessed as remaining activity at 1 uM by Kinome scan method relative to control
# [2] = target: Serine/threonine-protein kinase 10 (Homo sapiens) (UniProt O94804); test: Inhibition of LOK (unknown origin) assessed as remaining activity at 1 uM by Kinome scan method relative to control
# [3] = target: Serine/threonine-protein kinase Nek5 (Homo sapiens) (UniProt Q6P3R8); test: Inhibition of NEK5 (unknown origin) assessed as remaining activity at 1 uM by Kinome scan method relative to control
# Serine/threonine-protein kinase Nek5 (Homo sapiens), sequence (Q6P3R8 whole entry): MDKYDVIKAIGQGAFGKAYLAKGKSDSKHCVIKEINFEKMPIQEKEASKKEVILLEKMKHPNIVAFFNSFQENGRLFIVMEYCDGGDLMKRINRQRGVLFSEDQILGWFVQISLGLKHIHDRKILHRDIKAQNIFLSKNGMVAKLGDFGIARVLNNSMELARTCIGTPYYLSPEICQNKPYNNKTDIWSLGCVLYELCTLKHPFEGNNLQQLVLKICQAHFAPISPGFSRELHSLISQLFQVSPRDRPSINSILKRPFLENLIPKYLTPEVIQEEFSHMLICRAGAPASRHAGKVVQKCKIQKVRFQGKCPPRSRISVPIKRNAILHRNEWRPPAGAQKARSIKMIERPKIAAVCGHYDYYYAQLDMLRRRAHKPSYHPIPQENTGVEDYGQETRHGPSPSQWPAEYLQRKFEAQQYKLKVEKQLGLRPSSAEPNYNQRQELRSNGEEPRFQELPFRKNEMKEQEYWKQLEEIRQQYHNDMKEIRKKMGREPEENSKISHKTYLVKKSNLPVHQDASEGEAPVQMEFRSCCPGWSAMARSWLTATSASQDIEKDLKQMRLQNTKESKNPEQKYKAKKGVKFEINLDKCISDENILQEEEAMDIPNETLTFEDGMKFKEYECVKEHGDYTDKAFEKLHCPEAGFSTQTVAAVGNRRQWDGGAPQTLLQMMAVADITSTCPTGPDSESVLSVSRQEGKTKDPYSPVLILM
# [4] = target: Serine/threonine-protein kinase PAK 2 (Homo sapiens) (UniProt Q13177); test: Inhibition of PAK2 (unknown origin) assessed as remaining activity at 1 uM by Kinome scan method relative to control
# [5] = target: Phosphatidylinositol 4,5-bisphosphate 3-kinase catalytic subunit alpha isoform (Homo sapiens) (UniProt P42336); test: Inhibition of PIK3CA (unknown origin) assessed as remaining activity at 1 uM by Kinome scan method relative to control
# [6] = system: Phosphatidylinositol 4,5-bisphosphate 3-kinase catalytic subunit alpha isoform (Homo sapiens), P42336 [E545K]; test: Inhibition of PIK3CA E545K mutant (unknown origin) assessed as remaining activity at 1 uM by Kinome scan method relative to control
# [7] = target: Serine/threonine-protein kinase N1 (Homo sapiens) (UniProt Q16512); test: Inhibition of PKN1 (unknown origin) assessed as remaining activity at 1 uM by Kinome scan method relative to control
# Serine/threonine-protein kinase N1 (Homo sapiens), sequence (Q16512 2-942 limits assumed): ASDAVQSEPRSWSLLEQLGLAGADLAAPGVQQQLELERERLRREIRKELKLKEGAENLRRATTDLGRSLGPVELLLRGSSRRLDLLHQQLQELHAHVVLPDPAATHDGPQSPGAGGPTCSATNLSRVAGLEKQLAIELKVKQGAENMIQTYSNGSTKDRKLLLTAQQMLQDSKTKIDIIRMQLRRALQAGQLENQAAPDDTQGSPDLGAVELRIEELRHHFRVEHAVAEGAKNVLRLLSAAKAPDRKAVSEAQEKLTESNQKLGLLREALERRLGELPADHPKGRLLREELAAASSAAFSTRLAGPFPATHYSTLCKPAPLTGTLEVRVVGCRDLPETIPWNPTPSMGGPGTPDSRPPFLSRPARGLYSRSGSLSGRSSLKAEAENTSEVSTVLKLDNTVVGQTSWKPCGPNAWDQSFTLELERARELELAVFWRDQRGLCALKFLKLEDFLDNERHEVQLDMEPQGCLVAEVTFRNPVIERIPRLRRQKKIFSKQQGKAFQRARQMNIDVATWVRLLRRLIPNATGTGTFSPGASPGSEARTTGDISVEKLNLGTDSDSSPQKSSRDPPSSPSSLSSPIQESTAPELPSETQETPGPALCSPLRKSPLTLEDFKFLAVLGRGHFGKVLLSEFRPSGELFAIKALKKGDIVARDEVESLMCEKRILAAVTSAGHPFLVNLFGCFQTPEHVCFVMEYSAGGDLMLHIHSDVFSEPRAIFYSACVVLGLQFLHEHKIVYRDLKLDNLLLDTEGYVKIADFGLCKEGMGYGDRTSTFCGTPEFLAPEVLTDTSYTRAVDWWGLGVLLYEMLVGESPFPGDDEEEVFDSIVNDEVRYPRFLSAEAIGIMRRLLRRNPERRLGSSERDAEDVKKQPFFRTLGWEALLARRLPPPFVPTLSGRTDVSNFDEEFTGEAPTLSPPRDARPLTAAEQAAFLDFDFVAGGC
# [8] = target: Rho-associated protein kinase 1 (Homo sapiens) (UniProt Q13464); test: Inhibition of ROCK1 (unknown origin) assessed as remaining activity at 1 uM by Kinome scan method relative to control
# [9] = target: Ribosomal protein S6 kinase alpha-2 (Homo sapiens) (UniProt Q15349); test: Inhibition of N-terminal kinase domain RPS6KA2 (unknown origin) assessed as remaining activity at 1 uM by Kinome scan method relative to control
# [10] = target: Serine/threonine-protein kinase ULK1 (Homo sapiens) (UniProt O75385); test: Inhibition of ULK1 (unknown origin) assessed as remaining activity at 1 uM by Kinome scan method relative to control
# [11] = system: Tyrosine-protein kinase ABL1 (Homo sapiens), P00519 [Y253F]; test: Inhibition of human ABL1 Y253F mutant assessed as residual activity at 1 uM using Poly(Ala,Glu,Lys,Tyr)6:2:5:1 as substrate in presence of 33P-ATP by ProQinase assay relative to control
# [12] = target: Activin receptor type-1-like (Homo sapiens) (UniProt P37023); test: Inhibition of human ACVRL1 assessed as residual activity at 1 uM using Casein as substrate in presence of 33P-ATP by ProQinase assay relative to control
# Activin receptor type-1-like (Homo sapiens), sequence (P37023 whole entry): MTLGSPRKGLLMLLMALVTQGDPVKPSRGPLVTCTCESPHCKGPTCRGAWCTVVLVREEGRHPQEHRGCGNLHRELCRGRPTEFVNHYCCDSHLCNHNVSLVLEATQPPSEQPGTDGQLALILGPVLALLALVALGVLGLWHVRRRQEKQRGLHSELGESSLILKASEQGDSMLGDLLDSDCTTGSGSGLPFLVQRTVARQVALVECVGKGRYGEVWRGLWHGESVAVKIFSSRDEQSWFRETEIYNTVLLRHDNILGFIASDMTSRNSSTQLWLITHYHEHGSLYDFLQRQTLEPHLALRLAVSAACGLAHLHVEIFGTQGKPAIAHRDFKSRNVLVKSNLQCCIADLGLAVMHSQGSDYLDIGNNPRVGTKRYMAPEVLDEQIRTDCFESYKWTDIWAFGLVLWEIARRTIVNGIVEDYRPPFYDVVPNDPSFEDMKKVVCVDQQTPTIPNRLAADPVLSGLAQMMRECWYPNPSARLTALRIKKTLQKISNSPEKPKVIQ
# [13] = target: NUAK family SNF1-like kinase 1 (Homo sapiens) (UniProt O60285); test: Inhibition of human ARK5 assessed as residual activity at 1 uM using RBER-CHKtide as substrate in presence of 33P-ATP by ProQinase assay relative to control
# [14] = target: Tyrosine-protein kinase receptor UFO (Homo sapiens) (UniProt P30530); test: Inhibition of human AXL assessed as residual activity at 1 uM using polyEy as substrate in presence of 33P-ATP by ProQinase assay relative to control
# Tyrosine-protein kinase receptor UFO (Homo sapiens), sequence (P30530 whole entry): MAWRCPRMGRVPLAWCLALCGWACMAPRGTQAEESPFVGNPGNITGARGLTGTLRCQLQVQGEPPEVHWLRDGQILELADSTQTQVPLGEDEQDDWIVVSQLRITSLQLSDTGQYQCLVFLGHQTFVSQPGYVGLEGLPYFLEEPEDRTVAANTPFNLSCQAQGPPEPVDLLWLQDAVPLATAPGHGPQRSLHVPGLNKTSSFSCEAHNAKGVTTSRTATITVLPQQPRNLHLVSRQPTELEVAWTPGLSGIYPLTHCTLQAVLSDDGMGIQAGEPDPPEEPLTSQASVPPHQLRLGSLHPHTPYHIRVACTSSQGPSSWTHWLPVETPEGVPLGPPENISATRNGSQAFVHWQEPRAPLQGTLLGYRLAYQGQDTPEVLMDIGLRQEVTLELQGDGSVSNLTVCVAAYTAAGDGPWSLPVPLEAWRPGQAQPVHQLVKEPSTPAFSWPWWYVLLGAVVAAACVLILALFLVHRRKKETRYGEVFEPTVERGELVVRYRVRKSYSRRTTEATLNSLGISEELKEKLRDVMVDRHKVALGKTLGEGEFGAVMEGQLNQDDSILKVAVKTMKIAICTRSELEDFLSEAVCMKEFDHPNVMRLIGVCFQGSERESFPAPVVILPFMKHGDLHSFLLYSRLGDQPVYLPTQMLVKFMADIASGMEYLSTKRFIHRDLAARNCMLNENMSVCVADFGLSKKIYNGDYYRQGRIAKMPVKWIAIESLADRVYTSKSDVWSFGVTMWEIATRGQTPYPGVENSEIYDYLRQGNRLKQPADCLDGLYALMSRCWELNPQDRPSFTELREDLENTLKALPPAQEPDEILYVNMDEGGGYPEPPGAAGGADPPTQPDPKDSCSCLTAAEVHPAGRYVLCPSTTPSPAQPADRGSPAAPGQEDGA
# [15] = target: Dual specificity tyrosine-phosphorylation-regulated kinase 4 (Homo sapiens) (UniProt Q9NR20); test: Inhibition of human DYRK4 assessed as residual activity at 1 uM using RBER-CHKtide as substrate in presence of 33P-ATP by ProQinase assay relative to control
# Dual specificity tyrosine-phosphorylation-regulated kinase 4 (Homo sapiens), sequence (Q9NR20 whole entry): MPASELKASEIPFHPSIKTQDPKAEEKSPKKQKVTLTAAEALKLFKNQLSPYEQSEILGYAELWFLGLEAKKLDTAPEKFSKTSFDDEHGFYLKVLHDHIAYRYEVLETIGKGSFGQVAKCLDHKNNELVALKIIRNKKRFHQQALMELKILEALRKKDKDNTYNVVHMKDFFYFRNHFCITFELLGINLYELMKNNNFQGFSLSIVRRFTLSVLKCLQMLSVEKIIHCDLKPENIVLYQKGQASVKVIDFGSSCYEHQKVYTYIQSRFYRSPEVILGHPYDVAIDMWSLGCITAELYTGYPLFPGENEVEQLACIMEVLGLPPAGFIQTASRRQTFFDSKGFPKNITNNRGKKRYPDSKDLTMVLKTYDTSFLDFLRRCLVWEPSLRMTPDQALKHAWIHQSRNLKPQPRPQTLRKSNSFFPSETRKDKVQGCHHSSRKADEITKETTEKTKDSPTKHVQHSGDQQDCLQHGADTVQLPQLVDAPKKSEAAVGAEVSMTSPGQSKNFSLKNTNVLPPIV
# [16] = target: Ephrin type-B receptor 2 (Homo sapiens) (UniProt P29323); test: Inhibition of human EPHB2 assessed as residual activity at 1 uM using poly(Ala,Glu,Lys,Tyr)6:2:5:1 as substrate in presence of 33P-ATP by ProQinase assay relative to control
# Ephrin type-B receptor 2 (Homo sapiens), sequence (P29323 whole entry): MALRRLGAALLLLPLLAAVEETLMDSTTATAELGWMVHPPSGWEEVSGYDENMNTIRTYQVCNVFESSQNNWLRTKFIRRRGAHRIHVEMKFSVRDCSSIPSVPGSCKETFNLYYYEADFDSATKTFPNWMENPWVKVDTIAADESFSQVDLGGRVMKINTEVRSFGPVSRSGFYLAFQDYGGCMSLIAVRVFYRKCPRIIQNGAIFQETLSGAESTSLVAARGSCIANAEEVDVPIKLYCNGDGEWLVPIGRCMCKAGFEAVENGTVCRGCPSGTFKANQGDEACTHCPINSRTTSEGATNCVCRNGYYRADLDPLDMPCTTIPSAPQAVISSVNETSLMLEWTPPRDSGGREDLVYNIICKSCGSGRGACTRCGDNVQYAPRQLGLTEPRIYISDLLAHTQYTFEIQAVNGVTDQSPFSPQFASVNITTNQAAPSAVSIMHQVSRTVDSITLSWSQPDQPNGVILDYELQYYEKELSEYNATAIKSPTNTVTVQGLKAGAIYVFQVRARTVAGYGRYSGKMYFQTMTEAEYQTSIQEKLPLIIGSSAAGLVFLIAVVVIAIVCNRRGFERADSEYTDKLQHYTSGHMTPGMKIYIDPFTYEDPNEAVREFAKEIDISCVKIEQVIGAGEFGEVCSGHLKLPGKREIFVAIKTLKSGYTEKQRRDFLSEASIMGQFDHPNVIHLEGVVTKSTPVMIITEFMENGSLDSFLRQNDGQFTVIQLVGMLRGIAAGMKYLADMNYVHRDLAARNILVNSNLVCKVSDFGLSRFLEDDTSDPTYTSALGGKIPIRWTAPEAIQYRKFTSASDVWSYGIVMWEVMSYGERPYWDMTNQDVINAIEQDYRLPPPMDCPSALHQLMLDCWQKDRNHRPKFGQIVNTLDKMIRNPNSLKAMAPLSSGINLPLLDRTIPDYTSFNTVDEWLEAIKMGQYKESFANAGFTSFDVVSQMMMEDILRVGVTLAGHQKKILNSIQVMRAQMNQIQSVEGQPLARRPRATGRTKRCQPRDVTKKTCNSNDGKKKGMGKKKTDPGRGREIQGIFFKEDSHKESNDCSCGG
# [17] = system: Receptor-type tyrosine-protein kinase FLT3 (Homo sapiens), P36888 [D835Y]; test: Inhibition of human […] mutant assessed as residual activity at 1 uM using Poly(Ala,Glu,Lys,Tyr)6:2:5:1 as substrate in presence of 33P-ATP by ProQinase assay relative to control
# [18] = target: Insulin-like growth factor 1 receptor (Homo sapiens) (UniProt P08069); test: Inhibition of human IGF1R assessed as residual activity at 1 uM using polyEY as substrate in presence of 33P-ATP by ProQinase assay relative to control
# [19] = target: Tyrosine-protein kinase Mer (Homo sapiens) (UniProt Q12866); test: Inhibition of human MERTK assessed as residual activity at 1 uM using polyEY as substrate in presence of 33P-ATP by ProQinase assay relative to control
# [20] = system: Hepatocyte growth factor receptor (Homo sapiens), P08581 [F1200I]; test: Inhibition of human MET F1200I mutant assessed as residual activity at 1 uM using poly(Ala,Glu,Lys,Tyr)6:2:5:1 as substrate in presence of 33P-ATP by ProQinase assay relative to control
# [21] = target: MAP kinase-interacting serine/threonine-protein kinase 1 (Homo sapiens) (UniProt Q9BUB5); test: Inhibition of human MKNK1 assessed as residual activity at 1 uM using RB-S6P as substrate in presence of 33P-ATP by ProQinase assay relative to control
# [22] = target: Myosin light chain kinase, smooth muscle (Homo sapiens) (UniProt Q15746); test: Inhibition of human MYLK assessed as residual activity at 1 uM using RB-S6P as substrate in presence of 33P-ATP by ProQinase assay relative to control
# [23] = target: Serine/threonine-protein kinase PLK1 (Homo sapiens) (UniProt P53350); test: Inhibition of human PLK1 assessed as residual activity at 1 uM using RBER-CHKtide as substrate in presence of 33P-ATP by ProQinase assay relative to control
# [24] = target: Testis-specific serine/threonine-protein kinase 2 (Homo sapiens) (UniProt Q96PF2); test: Inhibition of human TSK2 assessed as residual activity at 1 uM using RBER-CHKtide as substrate in presence of 33P-ATP by ProQinase assay relative to control
# Testis-specific serine/threonine-protein kinase 2 (Homo sapiens), sequence (Q96PF2 whole entry): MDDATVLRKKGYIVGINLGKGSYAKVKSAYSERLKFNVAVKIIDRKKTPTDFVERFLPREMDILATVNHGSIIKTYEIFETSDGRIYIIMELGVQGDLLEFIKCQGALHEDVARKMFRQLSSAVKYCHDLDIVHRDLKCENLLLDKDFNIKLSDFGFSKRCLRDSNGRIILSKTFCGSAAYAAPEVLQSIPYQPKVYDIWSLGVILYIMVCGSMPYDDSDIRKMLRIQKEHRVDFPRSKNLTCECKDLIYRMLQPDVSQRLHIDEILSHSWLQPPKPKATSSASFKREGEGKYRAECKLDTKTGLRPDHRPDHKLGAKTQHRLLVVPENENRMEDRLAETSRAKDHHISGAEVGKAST
# [25] = target: Mitogen-activated protein kinase kinase kinase 20 (Homo sapiens) (UniProt Q9NYL2); test: Inhibition of human ZAK assessed as residual activity at 1 uM using MBP as substrate in presence of 33P-ATP by ProQinase assay relative to control
# [26] = Anti-inflammatory activity against human derived high respond PBMC cells assessed as inhibition in stimulated IL-4 cytokine release incubated for 2 hrs in the presence of LPS/SEB/aCD28 by Luminex based sandwich immunoassay; assay type: functional, cell-based
# [27] = Anti-inflammatory activity against human derived medium respond PBMC cells assessed as inhibition in stimulated IL-17A cytokine release incubated for 2 hrs in the presence of LPS/SEB/aCD28 by Luminex based sandwich immunoassay; assay type: functional, cell-based
smiles,measurement,setting,value
O=C1c2ccc(Nc3ccc(F)cc3F)cc2CCc2ccc(OC[C@H](O)CO)cc21 [Skepinone-L],Activity,[1],100%
same,Activity,[2],96%
same,Activity,[3],100%
same,Activity,[4],100%
same,Activity,[5],100%
same,Activity,[6],100%
same,Activity,[7],91%
same,Activity,[8],100%
same,Activity,[9],100%
same,Activity,[10],100%
same,Activity,[11],88%
same,Activity,[12],105%
same,Activity,[13],115%
same,Activity,[14],100%
same,Activity,[15],93%
same,Activity,[16],91%
same,Activity,[17],101%
same,Activity,[18],98%
same,Activity,[19],98%
same,Activity,[20],96%
same,Activity,[21],69%
same,Activity,[22],78%
same,Activity,[23],97%
same,Activity,[24],82%
same,Activity,[25],98%
same,IC50,[26],Not Active
same,IC50,[27],7.85 µM
